In ChEMBL document CHEMBL4507319 (2021):

Columns and labels:
Details in all cases: Compound concentration 1000.0 nM
[1] = target: Calcium/calmodulin-dependent protein kinase type II subunit alpha (Homo sapiens) (UniProt Q9UQM7)
[2] = target: Cyclin-dependent kinase 5 (Homo sapiens) (UniProt Q00535)
[3] = system: Epidermal growth factor receptor (Homo sapiens), P00533 [UNDEFINED MUTATION]
[4] = target: T1, Ephrin type-B receptor 4 (Homo sapiens) (UniProt P54760)
T1 sequence (whole entry): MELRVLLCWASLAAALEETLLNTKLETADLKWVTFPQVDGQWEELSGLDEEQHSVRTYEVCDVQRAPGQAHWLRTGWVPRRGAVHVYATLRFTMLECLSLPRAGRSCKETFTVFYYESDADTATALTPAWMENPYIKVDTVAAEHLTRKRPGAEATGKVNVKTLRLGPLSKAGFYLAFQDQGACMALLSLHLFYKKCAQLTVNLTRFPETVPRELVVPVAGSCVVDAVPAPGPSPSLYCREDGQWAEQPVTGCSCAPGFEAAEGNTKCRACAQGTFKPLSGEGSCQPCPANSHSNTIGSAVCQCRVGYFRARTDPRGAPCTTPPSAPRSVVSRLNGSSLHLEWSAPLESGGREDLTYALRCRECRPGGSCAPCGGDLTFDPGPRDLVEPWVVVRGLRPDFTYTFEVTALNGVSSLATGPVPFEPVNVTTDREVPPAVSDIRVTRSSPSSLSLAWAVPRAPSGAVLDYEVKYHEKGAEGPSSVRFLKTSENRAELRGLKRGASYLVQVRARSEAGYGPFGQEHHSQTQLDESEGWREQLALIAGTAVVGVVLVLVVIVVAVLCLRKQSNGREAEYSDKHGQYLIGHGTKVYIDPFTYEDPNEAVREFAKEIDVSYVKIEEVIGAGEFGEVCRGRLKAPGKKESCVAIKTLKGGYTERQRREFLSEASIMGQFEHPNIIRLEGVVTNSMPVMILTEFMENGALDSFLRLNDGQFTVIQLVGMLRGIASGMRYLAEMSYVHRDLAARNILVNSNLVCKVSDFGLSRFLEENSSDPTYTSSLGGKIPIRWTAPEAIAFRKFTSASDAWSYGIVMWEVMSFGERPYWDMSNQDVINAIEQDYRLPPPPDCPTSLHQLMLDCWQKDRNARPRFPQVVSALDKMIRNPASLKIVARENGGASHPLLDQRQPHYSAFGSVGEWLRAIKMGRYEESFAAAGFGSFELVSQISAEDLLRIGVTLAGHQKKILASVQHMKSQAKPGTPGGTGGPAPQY

[5] = target: Receptor tyrosine-protein kinase erbB-4 (Homo sapiens) (UniProt Q15303)
[6] = system: Receptor-type tyrosine-protein kinase FLT3 (Homo sapiens), P36888 [UNDEFINED MUTATION]
[7] = target: Serine/threonine-protein kinase LATS2 (Homo sapiens) (UniProt Q9NRM7)
Sequence of Serine/threonine-protein kinase LATS2 (Homo sapiens) (Q9NRM7 whole entry): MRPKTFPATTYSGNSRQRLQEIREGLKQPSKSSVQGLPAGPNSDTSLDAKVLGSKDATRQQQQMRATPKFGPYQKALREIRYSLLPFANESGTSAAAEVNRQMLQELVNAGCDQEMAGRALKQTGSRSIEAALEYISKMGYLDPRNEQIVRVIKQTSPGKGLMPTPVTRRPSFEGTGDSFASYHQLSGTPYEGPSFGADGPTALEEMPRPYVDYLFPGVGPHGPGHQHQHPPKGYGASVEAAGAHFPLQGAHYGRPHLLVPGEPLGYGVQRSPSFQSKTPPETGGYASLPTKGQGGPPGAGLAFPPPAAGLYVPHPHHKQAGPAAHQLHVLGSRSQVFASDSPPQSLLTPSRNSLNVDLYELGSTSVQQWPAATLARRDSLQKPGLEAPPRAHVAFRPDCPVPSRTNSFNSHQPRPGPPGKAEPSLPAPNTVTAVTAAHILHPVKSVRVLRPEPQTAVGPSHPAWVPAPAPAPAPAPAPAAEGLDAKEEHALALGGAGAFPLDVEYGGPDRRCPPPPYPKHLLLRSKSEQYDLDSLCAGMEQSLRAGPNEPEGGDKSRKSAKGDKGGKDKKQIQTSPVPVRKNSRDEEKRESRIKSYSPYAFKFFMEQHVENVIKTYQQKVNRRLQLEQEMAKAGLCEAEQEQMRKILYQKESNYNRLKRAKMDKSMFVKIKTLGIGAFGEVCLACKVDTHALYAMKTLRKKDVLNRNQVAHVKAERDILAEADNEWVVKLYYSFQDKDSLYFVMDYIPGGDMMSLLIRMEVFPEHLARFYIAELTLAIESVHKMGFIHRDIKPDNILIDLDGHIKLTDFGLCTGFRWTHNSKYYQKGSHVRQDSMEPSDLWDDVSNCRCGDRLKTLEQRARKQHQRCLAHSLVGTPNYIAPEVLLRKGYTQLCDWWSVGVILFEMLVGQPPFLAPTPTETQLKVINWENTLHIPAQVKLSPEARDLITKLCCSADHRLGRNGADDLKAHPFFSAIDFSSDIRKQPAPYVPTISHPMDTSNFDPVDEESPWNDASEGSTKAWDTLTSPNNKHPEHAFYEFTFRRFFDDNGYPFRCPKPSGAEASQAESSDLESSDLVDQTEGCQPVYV

[8] = target: Cyclin-dependent kinase 2 homolog (Plasmodium falciparum (isolate 3D7)) (UniProt P61075)
[9] = system: Phosphatidylinositol 4,5-bisphosphate 3-kinase catalytic subunit alpha isoform (Homo sapiens), P42336 [C420R]
Sequence of Phosphatidylinositol 4,5-bisphosphate 3-kinase catalytic subunit alpha isoform (Homo sapiens), P42336 [C420R] (P42336 whole entry C420R, canonical isoform): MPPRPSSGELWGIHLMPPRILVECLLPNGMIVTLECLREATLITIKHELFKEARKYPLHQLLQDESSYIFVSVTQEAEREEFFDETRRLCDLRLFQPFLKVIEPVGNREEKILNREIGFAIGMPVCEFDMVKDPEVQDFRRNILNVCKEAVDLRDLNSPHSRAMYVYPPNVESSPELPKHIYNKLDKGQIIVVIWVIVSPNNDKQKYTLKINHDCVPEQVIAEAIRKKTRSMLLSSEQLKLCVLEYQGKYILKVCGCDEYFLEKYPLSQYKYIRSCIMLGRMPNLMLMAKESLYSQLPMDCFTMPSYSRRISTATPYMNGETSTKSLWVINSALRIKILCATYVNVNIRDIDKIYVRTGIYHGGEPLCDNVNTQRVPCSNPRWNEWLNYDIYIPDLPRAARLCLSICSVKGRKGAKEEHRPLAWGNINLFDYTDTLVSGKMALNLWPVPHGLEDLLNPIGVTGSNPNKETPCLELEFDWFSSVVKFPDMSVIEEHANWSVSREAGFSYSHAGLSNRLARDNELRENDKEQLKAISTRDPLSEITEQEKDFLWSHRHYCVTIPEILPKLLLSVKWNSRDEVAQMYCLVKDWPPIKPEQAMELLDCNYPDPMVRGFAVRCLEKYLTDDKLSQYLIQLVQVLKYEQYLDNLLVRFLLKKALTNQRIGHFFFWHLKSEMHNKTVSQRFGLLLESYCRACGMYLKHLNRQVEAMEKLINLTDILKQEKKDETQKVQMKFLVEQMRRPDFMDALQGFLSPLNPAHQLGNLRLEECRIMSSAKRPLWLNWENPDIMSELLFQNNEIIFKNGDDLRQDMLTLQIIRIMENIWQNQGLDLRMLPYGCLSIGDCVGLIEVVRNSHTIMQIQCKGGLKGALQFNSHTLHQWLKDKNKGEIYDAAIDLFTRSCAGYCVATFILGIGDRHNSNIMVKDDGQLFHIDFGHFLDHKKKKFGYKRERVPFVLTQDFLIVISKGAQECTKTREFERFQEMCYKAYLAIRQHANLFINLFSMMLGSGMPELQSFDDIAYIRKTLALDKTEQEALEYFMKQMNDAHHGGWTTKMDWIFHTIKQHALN

[10] = target: Serine/threonine-protein kinase N1 (Homo sapiens) (UniProt Q16512)
Sequence of Serine/threonine-protein kinase N1 (Homo sapiens) (Q16512 2-942 limits assumed): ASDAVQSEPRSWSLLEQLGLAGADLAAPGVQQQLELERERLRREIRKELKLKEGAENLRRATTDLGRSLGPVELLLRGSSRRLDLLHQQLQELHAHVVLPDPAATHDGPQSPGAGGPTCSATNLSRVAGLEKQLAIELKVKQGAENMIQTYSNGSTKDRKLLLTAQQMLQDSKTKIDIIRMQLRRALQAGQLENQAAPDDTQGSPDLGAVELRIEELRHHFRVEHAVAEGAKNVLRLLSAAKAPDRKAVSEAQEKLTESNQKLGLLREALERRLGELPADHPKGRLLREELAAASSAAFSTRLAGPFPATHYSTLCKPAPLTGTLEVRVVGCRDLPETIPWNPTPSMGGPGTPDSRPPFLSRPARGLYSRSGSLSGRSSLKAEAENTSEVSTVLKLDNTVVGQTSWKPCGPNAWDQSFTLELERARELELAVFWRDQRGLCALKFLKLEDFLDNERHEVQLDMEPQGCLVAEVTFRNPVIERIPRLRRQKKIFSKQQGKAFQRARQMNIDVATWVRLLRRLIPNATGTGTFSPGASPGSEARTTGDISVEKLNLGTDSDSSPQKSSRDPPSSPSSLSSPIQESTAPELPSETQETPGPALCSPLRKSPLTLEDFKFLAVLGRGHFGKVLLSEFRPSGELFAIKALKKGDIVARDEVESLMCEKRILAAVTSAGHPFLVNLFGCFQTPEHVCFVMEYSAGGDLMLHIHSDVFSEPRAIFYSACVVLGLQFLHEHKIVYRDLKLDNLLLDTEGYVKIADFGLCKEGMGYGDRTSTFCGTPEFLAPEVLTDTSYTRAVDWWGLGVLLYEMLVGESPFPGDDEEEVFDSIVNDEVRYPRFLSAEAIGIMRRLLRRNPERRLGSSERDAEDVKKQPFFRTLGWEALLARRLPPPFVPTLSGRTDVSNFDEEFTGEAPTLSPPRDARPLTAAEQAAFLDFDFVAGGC

[11] = target: Protein kinase C eta type (Homo sapiens) (UniProt P24723)
[12] = system: Proto-oncogene tyrosine-protein kinase receptor Ret (Homo sapiens), P07949 [M918T]
Sequence of Proto-oncogene tyrosine-protein kinase receptor Ret (Homo sapiens), P07949 [M918T] (P07949 whole entry M918T): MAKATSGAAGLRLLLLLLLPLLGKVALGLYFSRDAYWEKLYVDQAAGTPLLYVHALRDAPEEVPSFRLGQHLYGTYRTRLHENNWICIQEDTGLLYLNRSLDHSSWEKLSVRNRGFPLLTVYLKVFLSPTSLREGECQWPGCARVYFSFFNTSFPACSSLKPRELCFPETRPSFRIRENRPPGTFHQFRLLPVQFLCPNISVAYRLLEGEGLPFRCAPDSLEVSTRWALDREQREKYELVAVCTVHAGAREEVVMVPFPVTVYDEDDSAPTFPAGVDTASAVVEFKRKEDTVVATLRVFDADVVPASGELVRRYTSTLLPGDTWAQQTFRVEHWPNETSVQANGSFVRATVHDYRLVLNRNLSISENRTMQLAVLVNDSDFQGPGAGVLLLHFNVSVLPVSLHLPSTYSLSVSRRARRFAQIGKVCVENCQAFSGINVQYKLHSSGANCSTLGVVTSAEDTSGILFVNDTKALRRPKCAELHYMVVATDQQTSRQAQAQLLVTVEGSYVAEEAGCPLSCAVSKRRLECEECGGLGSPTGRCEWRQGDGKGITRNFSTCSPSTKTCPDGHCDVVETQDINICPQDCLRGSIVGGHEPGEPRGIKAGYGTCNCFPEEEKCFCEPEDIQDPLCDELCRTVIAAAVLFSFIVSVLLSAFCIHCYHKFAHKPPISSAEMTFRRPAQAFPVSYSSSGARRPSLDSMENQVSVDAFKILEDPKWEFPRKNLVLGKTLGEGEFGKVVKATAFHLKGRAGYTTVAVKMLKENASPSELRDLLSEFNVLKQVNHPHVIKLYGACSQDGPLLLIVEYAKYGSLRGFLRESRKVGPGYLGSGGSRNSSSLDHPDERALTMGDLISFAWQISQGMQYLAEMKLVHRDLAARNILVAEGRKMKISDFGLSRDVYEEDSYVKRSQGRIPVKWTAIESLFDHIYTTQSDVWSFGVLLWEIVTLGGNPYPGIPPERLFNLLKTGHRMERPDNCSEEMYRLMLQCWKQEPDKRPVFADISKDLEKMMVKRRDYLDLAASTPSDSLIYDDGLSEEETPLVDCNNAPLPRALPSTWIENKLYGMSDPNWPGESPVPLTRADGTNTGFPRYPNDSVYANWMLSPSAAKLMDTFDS

[13] = target: Serine/threonine-protein kinase SIK2 (Homo sapiens) (UniProt Q9H0K1)
[14] = target: T2, Serine/threonine-protein kinase TAO2 (Homo sapiens) (UniProt Q9UL54)
T2 sequence (whole entry): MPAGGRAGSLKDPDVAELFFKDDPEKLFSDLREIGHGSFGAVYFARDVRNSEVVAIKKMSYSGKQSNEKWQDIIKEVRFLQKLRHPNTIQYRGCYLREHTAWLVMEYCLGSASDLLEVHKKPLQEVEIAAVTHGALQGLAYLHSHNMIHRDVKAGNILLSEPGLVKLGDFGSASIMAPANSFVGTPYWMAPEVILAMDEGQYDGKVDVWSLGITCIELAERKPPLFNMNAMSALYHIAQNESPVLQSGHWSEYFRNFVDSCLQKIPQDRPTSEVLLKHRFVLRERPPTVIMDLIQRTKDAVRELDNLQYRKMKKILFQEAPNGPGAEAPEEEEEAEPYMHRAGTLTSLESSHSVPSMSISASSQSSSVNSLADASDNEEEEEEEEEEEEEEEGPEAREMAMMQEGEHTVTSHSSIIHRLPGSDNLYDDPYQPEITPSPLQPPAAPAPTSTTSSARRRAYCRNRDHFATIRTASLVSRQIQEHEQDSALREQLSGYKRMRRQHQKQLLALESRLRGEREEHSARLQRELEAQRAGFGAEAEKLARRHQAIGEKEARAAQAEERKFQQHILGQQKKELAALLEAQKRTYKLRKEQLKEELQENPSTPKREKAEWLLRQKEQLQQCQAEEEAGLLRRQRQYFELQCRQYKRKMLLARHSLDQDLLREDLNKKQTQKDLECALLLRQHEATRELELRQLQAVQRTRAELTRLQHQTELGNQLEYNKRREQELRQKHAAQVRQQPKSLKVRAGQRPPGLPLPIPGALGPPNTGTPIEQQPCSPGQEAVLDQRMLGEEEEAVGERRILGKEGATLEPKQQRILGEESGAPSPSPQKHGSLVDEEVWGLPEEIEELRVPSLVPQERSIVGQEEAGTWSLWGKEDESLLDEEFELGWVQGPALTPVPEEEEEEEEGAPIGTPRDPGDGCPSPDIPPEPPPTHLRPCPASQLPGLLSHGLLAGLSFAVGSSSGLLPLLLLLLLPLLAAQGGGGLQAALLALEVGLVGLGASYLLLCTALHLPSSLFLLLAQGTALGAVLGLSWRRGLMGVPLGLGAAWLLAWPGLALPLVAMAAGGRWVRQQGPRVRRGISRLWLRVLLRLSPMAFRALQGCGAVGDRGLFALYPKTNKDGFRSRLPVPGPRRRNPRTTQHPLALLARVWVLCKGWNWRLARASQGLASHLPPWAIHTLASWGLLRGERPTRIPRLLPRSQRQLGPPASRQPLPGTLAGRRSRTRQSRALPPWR

[15] = target: Serine/threonine-protein kinase 25 (Homo sapiens) (UniProt O00506)
Sequence of Serine/threonine-protein kinase 25 (Homo sapiens) (O00506 whole entry, looked up): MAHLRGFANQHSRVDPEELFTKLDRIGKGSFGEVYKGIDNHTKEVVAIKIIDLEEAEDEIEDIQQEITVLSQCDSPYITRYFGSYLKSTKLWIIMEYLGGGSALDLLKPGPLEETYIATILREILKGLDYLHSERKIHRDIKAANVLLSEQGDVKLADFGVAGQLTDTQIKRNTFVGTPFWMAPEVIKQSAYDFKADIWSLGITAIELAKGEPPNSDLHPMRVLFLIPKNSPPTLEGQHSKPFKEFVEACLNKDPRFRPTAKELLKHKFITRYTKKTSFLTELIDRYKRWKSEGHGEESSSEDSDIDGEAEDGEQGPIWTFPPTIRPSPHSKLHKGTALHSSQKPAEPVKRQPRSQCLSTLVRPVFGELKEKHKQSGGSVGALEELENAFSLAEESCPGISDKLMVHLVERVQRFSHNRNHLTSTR

Sequence of Cyclin-dependent kinase 5 (Homo sapiens) (Q00535 whole entry, looked up): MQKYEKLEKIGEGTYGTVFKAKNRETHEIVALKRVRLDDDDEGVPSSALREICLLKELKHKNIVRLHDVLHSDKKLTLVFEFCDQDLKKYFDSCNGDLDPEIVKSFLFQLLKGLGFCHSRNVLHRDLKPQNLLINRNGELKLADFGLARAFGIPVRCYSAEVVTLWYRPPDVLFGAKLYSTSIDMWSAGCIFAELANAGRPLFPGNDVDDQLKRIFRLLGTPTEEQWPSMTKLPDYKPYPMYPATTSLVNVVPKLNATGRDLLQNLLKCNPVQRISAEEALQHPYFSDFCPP

Compound	residual activity [1] [%]	residual activity [2] [%]	residual activity [3] [%]	residual activity [4] [%]	residual activity [5] [%]	residual activity [6] [%]	residual activity [7] [%]	residual activity [8] [%]	residual activity [9] [%]	residual activity [10] [%]	residual activity [11] [%]	residual activity [12] [%]	residual activity [13] [%]	residual activity [14] [%]	residual activity [15] [%]
CCc1ccccc1C(=O)Nc1n[nH]c2c(C)c(F)c(C3C(C#N)=C(C)N(C)C(C)=C3C#N)cc12 [BAY-3827]	47	89	79	51	84	12	67	100	100	100	32	64	69	96	80
CC1=C(C#N)C(c2ccc3c(c2)c(NC(=O)c2ccccc2C)nn3C)C(C#N)=C(C)N1 [BAY-974]	90	87	73	97	65	76	100	84	74	78	94	100	93	70	100
